Test results as given in patent EP2156836A1, “[…] PHARMACEUTICAL COMPOSITIONS CONSISTING OF A COMBINATION OF A 5 alpha-REDUCTASE ENZYME INHIBITOR AND A 1 alpha- […] RECEPTOR ANTAGONIST” (priority 2007, dated 2008).
Read-outs that look alike come from different tables or passages of the source.

How the values were obtained:
[1] = system: Benign Prostatic Hyperplasia; assay type: in vivo, male patients; details: for Clinical Progression of BPH at 12 months of treatment (patients/group) / Clinical Progression of BPH at 12 months of treatment: daily tablet 12 months: Alfuzosine 10 mg, Finasteride 5 mg; for Clinical Progression of BPH at 12 months of treatment (patients/group): combination Finasteride 5 mg + Alfuzosine 5 mg; for Clinical Progression of BPH at 12 months of treatment (patients/group) / Increase in symptoms according to the score from American Association of Urology at 12 months of treatment (patients/group): n=40 per group; for Side Effects / patients who discontinued the treatment: human, in vivo; for Clinical Progression of BPH at 12 months of treatment: combination 5 mg + 5 mg, n=40
Procedure: In this clinical trial several tests were performed wherein Placebo, Finasteride, Alfuzosine and a combination of Finasteride/Alfuzosine were administered to a population of patients diagnosed with Benign Prostatic Hyperplasia.
(§1) Said clinical trial was applied in 160 male patients with a 60-year old average, wherein the symptoms manifested according to Urology American Association ranking were scored (score is assigned according to the following criteria: from 0= No symptoms to 35= severe symptoms). […] Finally, vital signs, treatment compliance and side effects were assessed for each of the groups.
(§2) At the beginning and at the end of said clinical trial the following examinations were applied to the patients: digital rectal examination, prostate-specific antigen assessment and urine analysis.
Subjects were randomized and assigned to a double-blind study divided into 4 groups. Randomization was stratified and medicament administration at night. • Group 1 Placebo: Patients received a daily tablet along 12 months. • Group 2 Finasteride: Patients received a daily 5 mg tablet along 12 months. • Group 3 Alfuzosine: Patients received a daily 10 mg tablet along 12 months. • Group 4 Combination: Patients received a tablet with a combination of Finasteride 5 mg and Alfuzosine 5 mg daily along 12 months.

[2] = system: plasmatic proteins; details: plasma; cited from earlier work
[3] = system: blood pressure; details: after oral administration; cited from earlier work
[4] = in vivo; cited from earlier work
[5] = system: Benign Prostatic Hyperplasia; details: for Incontinence (patients/group) / Invasive Therapy due to BPH (patients/group) / Urinary Retention (patients/group) / Urinary Tract infection (patients/group) / Incontinence / Invasive Therapy due to BPH / Urinary Retention / Urinary Tract infection: 12 months; for Incontinence (patients/group) / Invasive Therapy due to BPH (patients/group) / Urinary Retention (patients/group) / Urinary Tract infection (patients/group) / Incontinence / Invasive Therapy due to BPH / Urinary Retention / Urinary Tract infection / Increase in symptoms according to the score from American Association of Urology at 12 months of treatment / Increase in symptoms according to the score from American Association of Urology at 12 months of treatment (patients/group): same dosing as E17; for Clinical Progression of BPH at 12 months of treatment (patients/group): daily tablet 12 months: Doxazosine titrated 1 to 8 mg, combination Dutasteride 0.5 mg + Doxazosine 1 mg; for Clinical Progression of BPH at 12 months of treatment (patients/group) / Clinical Progression of BPH at 12 months of treatment: Dutasteride 0.5 mg; for Clinical Progression of BPH at 12 months of treatment (patients/group) / Increase in symptoms according to the score from American Association of Urology at 12 months of treatment (patients/group): n=40 per group; for Side Effects / patients who discontinued the treatment: human, in vivo; for Incontinence / Invasive Therapy due to BPH / Urinary Retention / Urinary Tract infection / Clinical Progression of BPH at 12 months of treatment / Increase in symptoms according to the score from American Association of Urology at 12 months of treatment: percent of patients; for Clinical Progression of BPH at 12 months of treatment: Doxazosine titrated 1 to 8 mg, combination 0.5 mg + 1 mg, n=40
Procedure: as §1, with “64-year” for “60-year”
as §2
Subjects were randomized and assigned to a double-blind study divided into 4 groups.

[6] = cited from earlier work; for serum concentrations as share of the equilibrium state concentration: daily dosage
[7] = system: prostate size; details: cited from earlier work; for reduction of prostate size: Dutasteride daily dosage; for reduces prostate size: stated for the 5α-reductase enzyme inhibitors as a class
[8] = system: BPH; details: cited from earlier work
[9] = percent of patients, 12 months, same dosing as E1
[10] = percent of patients, same dosing as E1

Row | Compound | Incontinence (patients/group) ([1]; 12 months, same dosing as E1) | Invasive Therapy due to BPH (patients/group) ([1]; 12 months, same dosing as E1) | Urinary Tract infection (patients/group) ([1]; 12 months, same dosing as E1) | Clinical Progression of BPH at 12 months of treatment (patients/group) [1] | Side Effects [1] | patients who discontinued the treatment [1] | Incontinence [1, 9] | Invasive Therapy due to BPH [1, 9] | Urinary Tract infection [1, 9] | Clinical Progression of BPH at 12 months of treatment ([1]; percent of patients) | Increase in symptoms according to the score from American Association of Urology at 12 months of treatment [1, 10] | Increase in symptoms according to the score from American Association of Urology at 12 months of treatment (patients/group) ([1]; same dosing as E1) | Incontinence (patients/group) [5] | Invasive Therapy due to BPH (patients/group) [5] | Urinary Retention (patients/group) [5] | Urinary Tract infection (patients/group) [5] | Clinical Progression of BPH at 12 months of treatment (patients/group) [5] | Side Effects [5] | patients who discontinued the treatment [5] | Incontinence [5] | other results
1 | COc1cc2nc(N(C)CCCNC(=O)C3CCCO3)nc(N)c2cc1OC (stereo not drawn) [Alfuzosine] | 4/40 | 4/40 | 2/40 | 18/40 | dizziness, postural hypotension, asthenia and impotence | 95% | 10% | 10% | 5% | 45% | 47.5% | 19/40 | – | – | – | – | – | – | – | – | Urinary Retention (patients/group) ([1]; 12 months, same dosing as E1): 21/40; Urinary Retention [1, 9]: 52.5%
2 | COc1cc2nc(N3CCN(C(=O)C4COc5ccccc5O4)CC3)nc(N)c2cc1OC (stereo not drawn) [Doxazosine] | – | – | – | – | – | – | – | – | – | – | – | – | 6/40 | 5/40 | 22/40 | 3/40 | 18/40 | dizziness, postural hypotension, and asthenia | 99% | 15% | bound to plasmatic proteins [2]: 98-99%; duration of hypotensive effects (remaining active) [3]: at least 24 hours; time at which hypotensive effects are observed [3]: 2 h; share of the dose removed by urine [4]: 9%; Invasive Therapy due to BPH [5]: 12.5%; Urinary Retention [5]: 55%; Urinary Tract infection [5]: 7.5%; Clinical Progression of BPH at 12 months of treatment [5]: 45%; Increase in symptoms according to the score from American Association of Urology at 12 months of treatment [5]: 50%; Increase in symptoms according to the score from American Association of Urology at 12 months of treatment (patients/group) [5]: 20/40
3 | C[C@]12C=CC(=O)N[C@@H]1CC[C@@H]1[C@@H]2CC[C@]2(C)[C@@H](C(=O)Nc3cc(C(F)(F)F)ccc3C(F)(F)F)CC[C@@H]12 [Dutasteride] | – | – | – | – | – | – | – | – | – | – | – | – | 5/40 | 2/40 | 15/40 | 1/40 | 11/40 | erectile dysfunction, libido decrease and/or abnormal ejaculation | 60% | 12.5% | half-life in blood ([6]; blood): 3-5 weeks; serum concentrations as share of the equilibrium state concentration ([6]; after one month): 65%; serum concentrations as share of the equilibrium state concentration ([6]; after three months): approximately 90%; reduction of prostate size ([7]; in some patients): up to 50%; reduction of prostate size [7]: at least 20%; reduces prostate size [7]: up to 50%; Invasive Therapy due to BPH [5]: 5%; Urinary Retention [5]: 37.5%; Urinary Tract infection [5]: 2.5%; Clinical Progression of BPH at 12 months of treatment [5]: 27.5%; Increase in symptoms according to the score from American Association of Urology at 12 months of treatment [5]: 35%; Increase in symptoms according to the score from American Association of Urology at 12 months of treatment (patients/group) [5]: 14/40
4 | CC(C)(C)NC(=O)[C@H]1CC[C@H]2[C@@H]3CC[C@H]4NC(=O)C=C[C@]4(C)[C@H]3CC[C@]12C [Finasteride] | 3/40 | 2/40 | 1/40 | 13/40 | erectile dysfunction, libido decrease and/or abnormal ejaculation | 45% | 7.5% | 5% | 2.5% | 32.5% | 37.5% | 15/40 | – | – | – | – | – | – | – | – | reduces prostate size [7]: up to 50%; Incidence of side effects during Finasteride treatment ([8]; most common: erectile dysfunction, decrease in ejaculated semen volume): about 3%; reduction in DHT concentration in blood and in prostate gland ([8]; patients who suffer BPH): ≤ 30%; reduction of prostate-specific antigen (PSA) serum levels ([8]; patients who suffer BPH): up to 50%; efficacy in an analysis of six clinical studies ([8]; when prostate weighed >40 g, Logan YT, Belgeri MT 2005): very effective
